In patent US8815857B2 (Boehringer Ingelheim International GmbH, priority 2011, dated 2014):
Values after ≈ are worked out from the molar mass of the structure shown.

What was measured:
[1] = Assessment of solubility: HT solubility in pION buffer, UV spectrophotometry; conditions: 16-19 h incubation, 1.0% DMSO; for solubility: pION system solution buffer, kinetic from dmso stock
[2] = biological target: T1, Recombinant human soluble guanylate cyclase (sGC), alpha 1 / beta 1 subunits, heme-free (Homo sapiens, UniProt Q02108+Q02153); assay: Molecular assay: cGMP formation by heme-free recombinant sGC (CisBio cGMP detection kit); type: biochemical; conditions: 300 pM heme-free sGC, 37° C., 60 min, cGMP readout; read-out: EC50 nM, Activity of Compounds in Molecular Assay
T1 construct: histidine tag (C); made in house; host or cells: Sf9 insect cells (baculovirus coinfection)
T1 sequence (Q02108 1-690 partner): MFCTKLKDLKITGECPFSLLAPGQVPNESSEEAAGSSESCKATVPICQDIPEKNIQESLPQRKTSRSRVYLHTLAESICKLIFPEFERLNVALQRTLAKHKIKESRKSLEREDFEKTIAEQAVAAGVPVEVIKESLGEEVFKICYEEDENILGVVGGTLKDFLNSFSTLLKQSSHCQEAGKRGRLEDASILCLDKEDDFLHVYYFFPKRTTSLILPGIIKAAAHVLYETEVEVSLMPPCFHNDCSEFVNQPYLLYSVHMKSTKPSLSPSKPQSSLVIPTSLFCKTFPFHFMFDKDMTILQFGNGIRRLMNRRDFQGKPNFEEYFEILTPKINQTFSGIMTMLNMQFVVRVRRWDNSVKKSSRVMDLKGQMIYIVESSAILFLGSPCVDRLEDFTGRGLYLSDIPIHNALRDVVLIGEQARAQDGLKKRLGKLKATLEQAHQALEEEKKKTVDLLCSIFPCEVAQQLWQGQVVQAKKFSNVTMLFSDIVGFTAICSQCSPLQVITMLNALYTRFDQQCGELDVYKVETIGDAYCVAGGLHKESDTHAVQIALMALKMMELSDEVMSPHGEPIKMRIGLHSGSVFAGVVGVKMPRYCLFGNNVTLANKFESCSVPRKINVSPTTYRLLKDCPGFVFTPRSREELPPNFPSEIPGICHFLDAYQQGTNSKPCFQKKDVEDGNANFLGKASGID
T1 sequence (Q02153 1-619): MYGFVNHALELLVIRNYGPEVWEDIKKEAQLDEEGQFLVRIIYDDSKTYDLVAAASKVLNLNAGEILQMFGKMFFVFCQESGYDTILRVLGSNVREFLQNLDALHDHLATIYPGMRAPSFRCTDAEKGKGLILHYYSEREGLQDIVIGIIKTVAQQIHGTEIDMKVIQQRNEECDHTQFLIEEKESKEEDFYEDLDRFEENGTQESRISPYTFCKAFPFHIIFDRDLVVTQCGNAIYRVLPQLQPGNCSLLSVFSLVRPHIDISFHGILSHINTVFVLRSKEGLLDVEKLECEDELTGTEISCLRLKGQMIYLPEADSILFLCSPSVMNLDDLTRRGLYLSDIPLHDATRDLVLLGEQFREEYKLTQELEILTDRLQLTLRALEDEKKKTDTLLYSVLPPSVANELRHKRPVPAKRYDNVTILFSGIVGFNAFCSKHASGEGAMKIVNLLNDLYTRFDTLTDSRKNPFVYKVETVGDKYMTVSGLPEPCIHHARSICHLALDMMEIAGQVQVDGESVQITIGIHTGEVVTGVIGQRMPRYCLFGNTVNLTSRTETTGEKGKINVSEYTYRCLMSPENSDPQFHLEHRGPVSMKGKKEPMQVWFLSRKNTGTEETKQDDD
Outline: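 Heme-free His-tagged sGC (Sf9-expressed, Tween 20-treated lysate) at 300 pM incubated with compounds (1% DMSO) for 60 min at 37° C in MOPS pH 6.8 with 50 nM GTP, IBMX, TCEP. cGMP quantified by HTRF against calibration curve; EC50 from combined undiluted/diluted values.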

[3] = pH 4.5, pH 4.5, aqueous buffer, Solubility (pH 4.5), pH 4.5 buffer
[4] = pH 7.4, pH 7.4, aqueous buffer, Solubility (pH 7.4), pH 7.4 buffer

SMILES: Cc1cc(CN2CCS(=O)(=O)CC2)ccc1COc1ccc(Cl)cc1-c1csc(N2CCC(C(=O)O)CC2)n1 [Compound 133]
- solubility [1, 3]: 0.2 µg/mL (≈ 0.339 µM)
- solubility [1, 4]: > 58 µg/mL
- EC50 [2]: 45 nM

SMILES: Cc1cc(CN2CCOCC2)ccc1COc1ccc(Cl)cc1-c1csc(N2CCC(C(=O)O)C(C)C2)n1 (stereo not drawn) [Compound 83]
- solubility [1, 3]: 11 µg/mL (≈ 19.8 µM)
- solubility [1, 4]: 25 µg/mL (≈ 45 µM)
- EC50 [2]: 210 nM

SMILES: COCCN(C)Cc1ccc(COc2ccc(C#N)cc2-c2csc(N3CCC(C(=O)O)CC3)n2)c(C)c1 [Compound 171]
- solubility [1, 3]: 34 µg/mL (≈ 63.6 µM)
- solubility [1, 4]: 36 µg/mL (≈ 67.3 µM)
- EC50 [2]: 2400 nM

SMILES: Cc1cc(CN(C)C2CCS(=O)(=O)C2)ccc1COc1c(C)cccc1-c1csc(N2CCC(C(=O)O)CC2)n1 (stereo not drawn) [Compound 123]
- solubility [1, 3]: 31 µg/mL (≈ 53.1 µM)
- solubility [1, 4]: > 58 µg/mL
- EC50 [2]: 17 nM

SMILES: Cc1cc(C(=O)N2CCCCC2)ccc1COc1ccccc1-c1csc(N2CCC(C(=O)O)C(C)C2)n1 (stereo not drawn) [Compound 42]
- solubility [1, 3]: 0.45 µg/mL (≈ 0.843 µM)
- solubility [1, 4]: > 53 µg/mL
- EC50 [2]: 51 nM

SMILES: Cc1ccc(OCc2ccc(CN3CCC(S(C)(=O)=O)CC3)cc2C)c(-c2csc(N3CCC(C(=O)O)CC3)n2)c1 [Compound 138]
- solubility [1, 3]: > 70 µg/mL
- solubility [1, 4]: > 70 µg/mL
- EC50 [2]: 180 nM

SMILES: Cc1cc(C(=O)N2CCCC2)ccc1COc1c(C)cccc1-c1csc(N2CCC(C(=O)O)CC2)n1 [Compound 15]
- solubility [1, 3]: 13 µg/mL (≈ 25 µM)
- solubility [1, 4]: > 51 µg/mL
- EC50 [2]: 190 nM

SMILES: Cc1cc(CN2CCOCC2)ccc1COc1ccc(F)cc1-c1csc(N2CCC(C(=O)O)CC2)n1 [Compound 28]
- solubility [1, 3]: > 52 µg/mL
- solubility [1, 4]: > 52 µg/mL
- EC50 [2]: 200 nM

SMILES: Cc1cc(C(=O)N2CCCCC2)ccc1COc1ccc(F)cc1-c1csc([C@H]2CC[C@@H](C(=O)O)CC2)n1 [Compound 56]
- solubility [1, 3]: 0.2 µg/mL (≈ 0.373 µM)
- solubility [1, 4]: 29 µg/mL (≈ 54 µM)
- EC50 [2]: 1600 nM

SMILES: Cc1cc(C(=O)N2CCCCC2)ccc1COc1ccccc1-c1csc(N2CC3CCC(C2)C3C(=O)O)n1 (stereo not drawn) [Compound 67]
- solubility [1, 3]: 0.2 µg/mL (≈ 0.366 µM)
- solubility [1, 4]: > 54 µg/mL
- EC50 [2]: 2.5 nM

SMILES: Cc1ccc(OCc2ccc(C(=O)N3CCCCC3)cc2C)c(-c2csc(N3CC4C(C3)C4C(=O)O)n2)c1 (stereo not drawn) [Compound 34]
- solubility [1, 3]: 0.9 µg/mL (≈ 1.69 µM)
- solubility [1, 4]: > 53 µg/mL
- EC50 [2]: 390 nM

SMILES: Cc1ccc(OCc2ccc(CNCC(C)(C)O)cc2C)c(-c2csc(N3CCC(C(=O)O)CC3)n2)c1 [Compound 25]
- solubility [1, 3]: > 63 µg/mL
- solubility [1, 4]: > 63 µg/mL
- EC50 [2]: 1300 nM

SMILES: Cc1cc(CN2CCOCC2)ccc1COc1ccc(C#N)cc1-c1csc(N2C3CCC2CC(C(=O)O)C3)n1 (stereo not drawn) [Compound 87]
- solubility [1, 3]: > 63 µg/mL
- solubility [1, 4]: > 63 µg/mL
- EC50 [2]: 800 nM

SMILES: Cc1cc(C(=O)N2CCCCC2)ccc1COc1ccccc1-c1csc(N2C3CCC2CC(C(=O)O)C3)n1 (stereo not drawn) [Compound 68]
- solubility [1, 3]: 1.2 µg/mL (≈ 2.2 µM)
- solubility [1, 4]: > 54 µg/mL
- EC50 [2]: 43 nM

SMILES: Cc1ccc(OCc2ccc(CN3CCOCC3)cc2C)c(-c2csc(N[C@H]3CC[C@@H](C(=O)O)CC3)n2)c1 [Compound 201]
- solubility [1, 3]: 36 µg/mL (≈ 67.2 µM)
- solubility [1, 4]: > 53 µg/mL
- EC50 [2]: 960 nM

SMILES: Cc1ccc(OCc2ccc(CN3CCS(=O)(=O)CC3)cc2C)c(-c2csc(N3C4CCC3CC(C(=O)O)C4)n2)c1 (stereo not drawn) [Compound 137]
- solubility [1, 3]: 0.95 µg/mL (≈ 1.59 µM)
- solubility [1, 4]: > 59 µg/mL
- EC50 [2]: 64 nM

SMILES: Cc1ccc(OCc2ccc(C(=O)N3CCCCC3)cc2C)c(-c2csc(N3CCC(C(=O)O)CC3C(F)(F)F)n2)c1 (stereo not drawn) [Compound 141]
- solubility [1, 3]: 0.2 µg/mL (≈ 0.332 µM)
- solubility [1, 4]: > 60 µg/mL
- EC50 [2]: 3.9 nM

SMILES: Cc1cc(CN2CCOCC2)ccc1COc1ccc(C#N)cc1-c1csc(N2CCC(C(=O)O)CC2)n1 [Compound 168]
- solubility [1, 3]: 36 µg/mL (≈ 67.6 µM)
- solubility [1, 4]: > 57 µg/mL
- EC50 [2]: 730 nM

SMILES: Cc1cc(CN2CCOCC2)ccc1COc1ccc(F)cc1-c1csc(N2CCC(C(=O)O)CC2C)n1 (stereo not drawn) [Compound 61]
- solubility [1, 3]: 44 µg/mL (≈ 81.5 µM)
- solubility [1, 4]: > 61 µg/mL
- EC50 [2]: 440 nM

SMILES: Cc1cc(CN2CCS(=O)(=O)CC2)ccc1COc1ccc(F)cc1-c1csc(N2CCC(C(=O)O)CC2)n1 [Compound 111]
- solubility [1, 3]: 0.25 µg/mL (≈ 0.436 µM)
- solubility [1, 4]: > 57 µg/mL
- EC50 [2]: 74 nM

SMILES: Cc1cc(CN2CCC(O)CC2)ccc1COc1c(C)cccc1-c1csc(N2CCC(C(=O)O)CC2)n1 [Compound 54]
- solubility [1, 3]: 16 µg/mL (≈ 29.9 µM)
- solubility [1, 4]: 16 µg/mL (≈ 29.9 µM)
- EC50 [2]: 2000 nM

SMILES: Cc1cc(C(=O)N2CCCCC2)ccc1COc1ccc(F)cc1-c1csc(N2C3CCC2CC(C(=O)O)C3)n1 (stereo not drawn) [Compound 97]
- solubility [1, 3]: 0.45 µg/mL (≈ 0.798 µM)
- solubility [1, 4]: > 56 µg/mL
- EC50 [2]: 59 nM

SMILES: Cc1ccc(OCc2ccc(CN(C)CC3CCOCC3)cc2C#N)c(-c2csc(N3CCC(C(=O)O)CC3)n2)c1 [Compound 112]
- solubility [1, 3]: > 68 µg/mL
- solubility [1, 4]: > 68 µg/mL
- EC50 [2]: 400 nM

SMILES: Cc1cccc(-c2csc(N3CCC(C(=O)O)CC3)n2)c1OCc1ccc(C(=O)N2CCCC2)cc1C#N [Compound 31]
- solubility [1, 3]: 25 µg/mL (≈ 47.1 µM)
- solubility [1, 4]: > 53 µg/mL
- EC50 [2]: 250 nM

SMILES: Cc1cc(CN2CCOCC2)ccc1COc1ccc(C#N)cc1-c1csc(N2CC3CCC(C2)C3C(=O)O)n1 (stereo not drawn) [Compound 86]
- solubility [1, 3]: 3.5 µg/mL (≈ 6.26 µM)
- solubility [1, 4]: 5.7 µg/mL (≈ 10.2 µM)
- EC50 [2]: 7100 nM

SMILES: Cc1cc(CN2CCS(=O)(=O)CC2)ccc1COc1ccc(C#N)cc1-c1csc(N2CC3CCC(C2)C3C(=O)O)n1 (stereo not drawn) [Compound 146]
- solubility [1, 3]: 0.75 µg/mL (≈ 1.24 µM)
- solubility [1, 4]: > 60 µg/mL
- EC50 [2]: 2000 nM

SMILES: Cc1cc(C(=O)N2CCCCC2)ccc1COc1ccc(F)cc1-c1csc([C@H]2CC[C@H](C(=O)O)CC2)n1 [Compound 57]
- Solubility (pH 4.5) ([1]; pH 4.5 buffer): 0.1 μg/mL
- solubility [1, 4]: > 53 µg/mL
- EC50 [2]: 1800 nM

SMILES: Cc1ccc(OCc2ccc(CN3CCN(C(=O)C4CCOC4)CC3)cc2C)c(-c2csc(N3CCC(C(=O)O)CC3)n2)c1 (stereo not drawn) [Compound 197]
- solubility [1, 3]: 51 µg/mL (≈ 82.4 µM)
- solubility [1, 4]: > 71 µg/mL
- EC50 [2]: 230 nM

SMILES: Cc1ccc(OCc2ccc(CN3CCN(S(C)(=O)=O)CC3)cc2C)c(-c2csc(N3CCC(C(=O)O)CC3)n2)c1 [Compound 196]
- solubility [1, 3]: 16 µg/mL (≈ 26.7 µM)
- solubility [1, 4]: 37 µg/mL (≈ 61.8 µM)
- EC50 [2]: 110 nM

SMILES: Cc1cc(CN2CCOCC2)ccc1COc1ccccc1-c1csc(N2C3CCC2CC(C(=O)O)C3)n1 (stereo not drawn) [Compound 44]
- solubility [1, 3]: > 60 µg/mL
- solubility [1, 4]: > 60 µg/mL
- EC50 [2]: 760 nM

SMILES: Cc1ccc(OCc2ccc(C(=O)N3CCCCC3)cc2C)c(-c2csc(N3CCC(C(=O)O)CC3)n2)c1 [Compound 39]
- solubility [1, 3]: 0.95 µg/mL (≈ 1.78 µM)
- solubility [1, 4]: > 53 µg/mL
- EC50 [2]: 27 nM
